Test results: US10424806B2, “Organic non-aqueous cation-based redox flow batteries” (UCHICAGO ARGONNE, LLC, priority 2012, dated 2019)

Key:
[1] = Cyclic voltammetry in Pt/Na/Na cell with sodium electrolyte; assay type: physicochemical; conditions: NaPF6 in propylene carbonate
Procedure: The redox materials described herein also can be utilized with sodium-based electrolyte salts. For example, FIG. 22(a) provides a cyclic voltammogram obtained with about 17 mM DBBB in 0.247 M Na PF6 in propylene carbonate, in a Pt/Na/Na cell at scan rates of 5, 20, 50, and 100 mV/s. FIG. 22(b) provides a cyclic voltammogram obtained with about 13 mM 2,3,6-trimethylquinoxaline in 0.217 M NaPF6 in propylene carbonate at a 20 mV/s scan rate.

[2] = Solubility in solvent or electrolyte; assay type: physicochemical
[3] = Cyclic voltammetry in Pt/Li/Li three-electrode cell; assay type: physicochemical; conditions: for redox properties from cyclic voltammogram: lithium electrolyte and concentration differ per compound; for performance compared with quinoxaline: 0.005 M in Electrolyte B; for Potential: 10 mM in 1.2 M LiPF6 in EC/EMC (3:7 by weight), Pt/Li/Li
Procedure: The upper and lower redox potentials shown in FIG. 5 were determined by a combination of average peak potential and graphical analysis of the cyclic voltammograms over a range of scan rates (5, 10, 20, 50, 100, and 200 mV/s).
Cyclic voltammetry (CV) were performed in a custom-made airtight three-electrode electrochemical cell with a 2-mm diameter platinum disk working electrode and lithium metal counter and reference electrodes. Prior to use, the platinum disk electrode was dipped in nitric acid solution (about 50 vol % HNO3, Ricca Chemical Company) and then polished on a MICROCLOTH® pad with 0.3 μm and 0.05 μm alumina (Buehler Ltd., Lake Bluff, Ill.). After polishing, the electrode was thoroughly rinsed with distilled water and dried with house nitrogen. The electrochemical cell was then assembled in an Argon-filled glove box and transferred out to perform measurements. […] All evaluations were performed in triplicate at room temperature.
The redox potential of DBBB was calculated by averaging the oxidation and reduction peak potentials in the two different electrolytes at various scan rates (5, 10, 20, 50, 100, and 200 mV/s). […] The shift in the peak potential with the scan rate may be caused by the limited charge-transfer kinetics of the active species (DBBB) and the uncompensated resistance, which is commonly called the “iR drop”. Because the polarization from the kinetic effect and iR drop is triggered by the current flowing through the electrochemical cell, the average peak potential [(Epa+Epc)/2] gives a good estimation of the redox potential of the reversible electroactive species. […] Evaluations were performed in triplicate in a Pt/Li/Li cell at room temperature.

[4] = Li-ion cell, 100% overcharge; cited from earlier work
[5] = Diffusion coefficient from Randle-Sevcik measurements; assay type: physicochemical
Procedure: 2,5-Di-tert-butyl-1,4-bis(2-methoxyethoxy)benzene (“DBBB”) is a redox material developed at Argonne National Laboratory for overcharge protection in Li-ion batteries. […] The diffusion coefficient of DBBB was determined to be about 1.30×10^−6 cm^2/s in the battery electrolyte based on Randle-Sevcik measurements. However, Electrolyte A is non-ideal for flow battery applications due to high volatility, extreme moisture sensitivity, and high materials cost. Thus, an electrolyte consisting of 0.2 M LiBF4 in propylene carbonate (“Electrolyte B”) was also investigated as a more robust and lower cost alternative. FIG. 2b show iR-corrected cyclic voltammograms of 0.005 M DBBB in Electrolyte A and in Electrolyte B at a scan rate of 20 mV/s. […] Thus, 2,5-di-tert-butyl-1,4-dialkoxybenzene compounds, such as DBBB, are active in different electrolyte systems, and the performance of these materials can be tailored by the choice of the electrolyte composition.

[6] = Intrinsic capacity and energy density (Table 1); assay type: physicochemical
Source text: Table 1 provides a summary of the useful redox properties of these compounds.

SMILES: Cc1ccc2nc(C)c(C)nc2c1 [2,3,6-trimethylquinoxaline]
- redox properties from cyclic voltammogram [1]: suitable reversible redox properties

SMILES: Oc1nc2ccccc2nc1O [2,3-Dihydroxyquinoxaline]
- solubility in electrolyte solution ([2]; Electrolyte B): not soluble

SMILES: BrCc1nc2ccccc2nc1CBr [2,3-bis(bromomethyl)quinoxaline]
- redox activity ([3]; Electrolyte B): no redox activity was observed

SMILES: CC(=O)c1cnc2ccccc2n1 [2-Acetylquinoxaline]
- redox activity ([3]; Electrolyte B): some redox activity
- separation of oxidation and reduction events ([3]; Electrolyte B): about 1 V

SMILES: FC(F)(F)c1cnc2ccccc2n1 [2-trifluoromethylquinoxaline]
- redox activity ([3]; Electrolyte B): no redox activity was observed

SMILES: CN1c2ccccc2N(C)c2ccccc21 [5,10-dihydro-5,10-dimethylphenazine]
- redox properties from cyclic voltammogram ([3]; Pt/Li/Li cell): suitable redox properties

SMILES: Cc1cccc2nccnc12 [5-methylquinoxaline]
- performance compared with quinoxaline ([3]; Pt/Li/Li cell): lower activity

SMILES: Cc1cc2nc(-c3ccccn3)c(-c3ccccn3)nc2cc1C [6,7-dimethyl-2,3-di(2-pyridyl)quinoxaline]
- lower redox potential ([3]; Electrolyte B, Pt/Li/Li cell, average peak potential method): about 2.6 V

SMILES: Cc1ccc2nccnc2c1 [6-methylquinoxaline]
- performance compared with quinoxaline ([3]; Pt/Li/Li cell): slightly better performance than quinoxaline

SMILES: Fc1c(F)c(F)c2c(c1F)OCCO2 [Compound 5]
- redox properties from cyclic voltammogram ([3]; Pt/Li/Li cell): redox properties suitable for use as redox reactants for the positive electrolyte

SMILES: Fc1ccc(B2Oc3c(F)c(F)c(F)c(F)c3O2)c(F)c1 [Compound 6]
- redox properties from cyclic voltammogram ([3]; Pt/Li/Li cell): redox properties suitable for use as redox reactants for the positive electrolyte

SMILES: Fc1c(F)c(F)c2c(c1F)OB(c1cc(C(F)(F)F)ccc1C(F)(F)F)O2 [Compound 7]
- redox properties from cyclic voltammogram ([3]; Pt/Li/Li cell): redox properties suitable for use as redox reactants for the positive electrolyte

SMILES: Fc1c(F)c(F)c(B2Oc3c(F)c(F)c(F)c(F)c3O2)c(F)c1F [Compound 8]
- redox properties from cyclic voltammogram ([3]; Pt/Li/Li cell): redox properties suitable for use as redox reactants for the positive electrolyte

SMILES: COCCOc1cc(C(C)(C)C)c(OCCOC)cc1C(C)(C)C [DBBB, 2,5-Di-tert-butyl-1,4-bis(2-methoxyethoxy)benzene]
- potential at which active in overcharge protection [4]: about 4.0 V vs. Li/Li^+
- diffusion coefficient ([5]; Electrolyte A): about 1.30×10^−6 cm^2/s
- diffusion coefficient ([5]; Electrolyte B): about 1.53×10^−6 cm^2/s
- redox properties from cyclic voltammogram [1]: suitable reversible redox properties
- redox potential, average of anodic and cathodic potentials [(Epa+Epc)/2] ([3]; 0.005 M in Electrolyte A (1.2 M LiPF6 in EC/EMC 3/7 by volume), room temperature): about 3.927 V vs. Li/Li^+
- redox potential ([3]; 0.005 M in Electrolyte B (0.2 M LiBF4 in propylene carbonate), room temperature): 4.022 V vs. Li/Li^+

SMILES: c1ccc2nccnc2c1 [Quinoxaline]
- solubility ([2]; organic solvent or mixture, in propylene carbonate): ≥ 2000 mM

SMILES: COCCOc1c(F)c(F)c(OCCOC)c(F)c1F [TFBMEB, 1,2,4,5-tetrafluoro-3,6-bis(2-methoxyethoxy)benzene]
- Energy Density [6]: 422.5 Wh/Kg
- Intrinsic Capacity [6]: 89.9 mAh/g
- Potential [3]: 4.70 V vs. Li/Li

SMILES: CCOc1c(F)c(F)c(OCC)c(F)c1F [TFDEB, 1,2,4,5-tetrafluoro-3,6-diethoxybenzene]
- Energy Density [6]: 520.9 Wh/Kg
- Intrinsic Capacity [6]: 112.5 mAh/g
- Potential [3]: 4.63 V vs. Li/Li

SMILES: COc1c(F)c(F)c(OC)c(F)c1F [TFDMB, 1,2,4,5-tetrafluoro-3,6-dimethoxybenzene]
- Energy Density [6]: 599.7 Wh/Kg
- Intrinsic Capacity [6]: 127.6 mAh/g
- Potential [3]: 4.70 V vs. Li/Li

SMILES: O=C(c1ccccc1)c1ccccc1 [benzophenone]
- redox properties from cyclic voltammogram ([3]; Pt/Li/Li cell): suitable redox properties

SMILES: [Cl-].[Cl-].c1ccc(C[n+]2ccc(-c3cc[n+](Cc4ccccc4)cc3)cc2)cc1 [bis-benzyl-4,4′-bipyridinium dichloride]
- redox properties from cyclic voltammogram ([3]; Pt/Li/Li cell): suitable redox properties
